Tested on: Baumwollpflanzen
Experiment: Defoliation and desiccation of the leaves of cotton (Beispiel A)
Format: in vivo, Baumwolle
Conditions: greenhouse; cotton plants sprayed dripping wet at full unfolding of the 5th leaf; rated after 1 week against control plants; concentration not given
Excerpt: Entlaubung und Austrocknung der Blätter bei Baumwolle
Lösungsmittel: 30 Gewichtsteile Dimethylformamid Emulgator: 1 Gewichtsteil Polyoxyethylen-SorbitanMonolaurat
Zur Herstellung einer zweckmäßigen Wirkstoffzubereitung vermischt man 1 Gewichtsteil Wirkstoff mit den angegebenen Mengen Lösungsmittel und Emulgator und füllt mit Wasser auf die gewünschte Konzentration auf.
Baumwollpflanzen werden im Gewächshaus bis zur vollen Entfaltung des 5. Folgeblattes angezogen. In diesem Stadium werden die Pflanzen tropfnaß mit den Wirkstoffzubereitungen besprüht. Nach 1 Woche werden der Blattfall und das Austrocknen der Blätter im Vergleich zu den Kontrollpflanzen bonitiert. Es bedeuten: • 0 kein Austrocknen der Blätter, kein Blattfall • + leichtes Austrocknen der Blätter, geringer Blattfall • ++ starkes Austrocknen der Blätter, starker Blattfall • sehr starkes Austrocknen der Blätter, sehr starker Blattfall

SMILES: CC(=O)OCc1cc(Oc2ccc(C(F)(F)F)cc2Cl)ccc1[N+](=O)[O-] [Beispiel 1, Essigsäure-(2-nitro-5-(2-chlor-4-trifluormethyl-phenoxy)-benzyl)-ester]
- Blattfall und Austrocknen der Blätter: starke Wirksamkeit

Source: patent EP0077961A2, “Substituted 2-nitro-5-(4-trifluoromethyl-phenoxy) toluols, process for their preparation and their use as herbicides and plant growth regulators” (BAYER AG, priority 1981, dated 1983)
